Measurements from patent US12048761B2, “Methods and pharmaceutical compositions for the treatment of retinal capillary non-perfusion” (INSERM (INSTITUT NATIONAL DE LA SANTÉ ET DE LA RECHERCHE …, priority 2015, dated 2024).
Entries after “also recorded” stand apart in the source; their conditions may differ.

Columns and labels:
[1] = tested on: ROCK; settings: cited from earlier work
[2] = tested on: ROCK; assay: ROCK Activity Immunoblot Kit: phosphorylation of recombinant MYPT1 by RPE/choroid samples of treated GK rats; format: in vivo, rat; settings: GK diabetic rats, 3 intravitreous injections of 20 μM, vs vehicle
Description: We used a ROCK Activity Immunoblot Kit (Cell Biolabs, San Diego, CA, USA) that utilizes recombinant MYPT1 as a ROCK substrate. ROCK inactivates myosin phosphatase through a specific phosphorylation of myosin phosphatase target subunit 1 (MYPT1) at Thr696, which results in an increase in the phosphorylated content of the 20-kDa myosin light chain. (MLC20) After incubating the substrate (recombinant MYPT1) with RPE/choroid samples, the phosphorylated MYPT1 was detected by western blot analysis using an anti-phospho-MYPT1 (Thr696). In brief, RPE/choroid protein samples were diluted in 1× Kinase buffer. 25 μL (75 μg of proteins) was added in microcentrifuge tubes and the initiation of kinase reaction was performed by adding 50 μL of 1× Kinase/ATP/Substrate Solution. The microcentrifuge tubes were then incubated at 30° C. for 30-60 minutes with gentle agitation. Then the kinase reaction was stopped by adding 25 μL of 4× reducing SDS-PAGE sample buffer. […] Inhibition of ROCK activity was evaluated by western blotting and quantified.

[3] = tested on: ROCK-1; assay: Western blotting of ROCK1 protein level in RPE; format: in vivo, rat; settings: GK diabetic rats, 3 intravitreous injections of 20 μM, vs vehicle injected eyes, n=6
Description: (§2) For intravitreous injections, diabetic rats were anesthetized with an intraperitoneal injection of pentobarbital (40 mg/kg Nembutal, Abbot, Saint-Remy sur Avre, France) and pupils were dilated with a topically applied drop of 5% tropicamide (Ciba Vision, Toulouse, France), and locally anesthetized with a drop of 1% tetracaine (Ciba Vision). Three consecutive injections, of Fasudil at a concentration of 20 M or vehicle were performed, at 48 hours interval under a surgical microscope, using a 30-gauge needle (Microfine: Becton Dickinson, Meylan, France as described previously [29-31]). Animals were sacrificed 48 hours following the administration of 3 intra-vitreous injections of 20 μM of Fasudil, each injection was 2 days apart.
RPE/choroid and neural retina were homogenized in a lysis buffer (50 mM Mops, 50 mM Trisbase, 0.1%, SDS 1 mM EDTA PH 7.7) containing a protease inhibitor cocktail (Roche, France). Protein concentration was determined using a (Pierce BCA protein assay kit Thermo Scientific Rockford USA) (20-40 μg) were subjected to SDS-PAGE on Nupage 4-12% Bis-Tris gel electrophoresis, and electroblotted onto nitrocellulose membranes (Optitran BA-S 83 GE Healthcare Life Science Whatman). Membranes were incubated with primary antibodies.

[4] = tested on: p-MLC; assay: Western blotting of p-MLC protein level in RPE; format: in vivo, rat; settings: GK diabetic rats, 3 intravitreous injections of 20 μM, vs vehicle
Description: (§1) For intravitreous injections, diabetic rats were anesthetized with an intraperitoneal injection of pentobarbital (40 mg/kg Nembutal, Abbot, Saint-Remy sur Avre, France) and pupils were dilated with a topically applied drop of 5% tropicamide (Ciba Vision, Toulouse, France), and locally anesthetized with a drop of 1% tetracaine (Ciba Vision). Three consecutive injections, of Fasudil at a concentration of 20 µM or vehicle were performed, at 48 hours interval under a surgical microscope, using a 30-gauge needle (Microfine: Becton Dickinson, Meylan, France as described previously). […] Protein concentration was determined using a (Pierce BCA protein assay kit Thermo Scientific Rockford USA) (20-40 μg) were subjected to SDS-PAGE on Nupage 4-12% Bis-Tris gel electrophoresis, and electroblotted onto nitrocellulose membranes (Optitran BA-S 83 GE Healthcare Life Science Whatman). […] Then, membranes were incubated with the corresponding peroxidase-conjugated F(ab)2 fragment (Santa cruz Biotechnology Inc, Santa Cruz, CA, USA (dilution 1:5000) secondary antibodies. Immunoreactive bands were detected with the ECL Western blotting Detection Reagents Kit (Thermo Scientific Rockford USA). The relative abundance of individual proteins identified was quantified by scanning densitometry. The list of antibodies used for western-blots are provided in Table 2.

[5] = tested on: ROCK1/P-MLC; assay: Immunolocalization of ROCK1 and P-MLC on RPE cell flatmounts; format: in vivo, rat; settings: GK diabetic rats, 3 intravitreous injections of 20 μM
Description: as §2
For flatmounts, after enucleation, ocular globes were fixed in 4% paraformaldehyde (PFA) for 15 min at room temperature and sectioned at the limbus; anterior segments were discarded. Neural retinas and RPE/choroids were fixed separately for additional 15 min in acetone at −20° C. Specimens were then incubated overnight at 4° C. with primary antibodies diluted in PBS supplemented with 10% foetal calf serum (FCS) and 0.1% Triton X-100. Immunohistochemistry was repeated at least 7 times on 7 different animals for each group.

[6] = tested on: RPE cells; assay: Quantitative analysis of RPE cell layer morphology on RPE flat-mounts; format: in vivo, rat; settings: Fasudil vs vehicle
Description: For intravitreous injections, diabetic rats were anesthetized with an intraperitoneal injection of pentobarbital (40 mg/kg Nembutal, Abbot, Saint-Remy sur Avre, France) and pupils were dilated with a topically applied drop of 5% tropicamide (Ciba Vision, Toulouse, France), and locally anesthetized with a drop of 1% tetracaine (Ciba Vision). Three consecutive injections, of Fasudil at a concentration of 20 µM or vehicle were performed, at 48 hours interval under a surgical microscope, using a 30-gauge needle (Microfine: Becton Dickinson, Meylan, France as described previously). Animals were sacrificed 48 hours following the administration of 3 intra-vitreous injections of 20 μM of Fasudil, each injection was 2 days apart. To analyse RPE flat-mounts and in order to assess the cell morphology. an ImageJ [32] macro tool was created in Fiji. Briefly, after a first image processing by FFT band pass filtering, images were converted into binary format and masked and then processed to obtain a skeleton image (isolated segments and loops were removed). This image was inverted and the cells segmented and labelled with the “particle analysis” tool in ImageJ, the Regions of Interest (ROI) were delimited using ROI Manager tool. The number of vertices for each cell was measured following detection of triple points (points were three branches are joined together) with the appropriate binary “hit or miss” transformation. For this transformation, the ImageJ plugin “morphology” was used. By removing those points from the skeleton image, the number of individual edges was counted as well as their length. The number of vertices was then verified and manually corrected for errors. Images with more than 5% automatic alignment errors were eliminated from analysis. Following this several morphological parameters were then measured for each cell e.g. area, perimeter, circularity, number of neighbours/vertices/edges of a cell etc. […]

[7] = tested on: outer retinal barrier (RPE); assay: Blood-retinal barrier breakdown using intravenous injection of 150 KDa FITC-dextran; format: in vivo, rat
Description: For intravitreous injections, diabetic rats were anesthetized with an intraperitoneal injection of pentobarbital (40 mg/kg Nembutal, Abbot, Saint-Remy sur Avre, France) and pupils were dilated with a topically applied drop of 5% tropicamide (Ciba Vision, Toulouse, France), and locally anesthetized with a drop of 1% tetracaine (Ciba Vision). Three consecutive injections, of Fasudil at a concentration of 20 µM or vehicle were performed, at 48 hours interval under a surgical microscope, using a 30-gauge needle (Microfine: Becton Dickinson, Meylan, France as described previously). Animals were sacrificed 48 hours following the administration of 3 intra-vitreous injections of 20 μM of Fasudil, each injection was 2 days apart. To assess blood retinal barrier breakdown, 200 μl of 150 KDa FITC-dextran at 50 mg/ml in PBS (Sigma) was injected intravenously in the tail of rats treated by Fasudil or vehicle (n=5), 2 hours prior killing. Leakage of FITC-dextran was evaluated by measuring fluorescence within the retina using imageJ software as previously described by others. Cryosections (10 μm) of Fasudil and vehicles injected rats retina were randomly imaged (10 images at 40× magnification per animal) and analysed.

[8] = tested on: retinal capillary network; assay: Quantitative assessment of the retinal microangiopathy: lectin-labelled capillary surface on flat-mounted retina; format: in vivo, rat; settings: GK rats, n=4 Fasudil and n=5 vehicle, p<0.05
Description: For intravitreous injections, diabetic rats were anesthetized with an intraperitoneal injection of pentobarbital (40 mg/kg Nembutal, Abbot, Saint-Remy sur Avre, France) and pupils were dilated with a topically applied drop of 5% tropicamide (Ciba Vision, Toulouse, France), and locally anesthetized with a drop of 1% tetracaine (Ciba Vision). Three consecutive injections, of Fasudil at a concentration of 20 µM or vehicle were performed, at 48 hours interval under a surgical microscope, using a 30-gauge needle (Microfine: Becton Dickinson, Meylan, France as described previously). Animals were sacrificed 48 hours following the administration of 3 intra-vitreous injections of 20 μM of Fasudil, each injection was 2 days apart. To quantify the area of large and small blood vessels on flat mounted retina, an ImageJ macro was created in Fiji. Briefly, the local thickness function available with the Fiji plugin for ImageJ software was used to create a map of the blood vessels, from which diameter of the local structures could be evaluated. This map was thresholded to define two binary masks corresponding to the vessels of large diameter (local thickness>threshold) and the vessels of small diameter (local thickness<threshold). The area of those masks was then measured and expressed in terms of the surface area occupied by the small vessels.

[9] = tested on: VEGF; assay: VEGF western blot in neural retina and VEGF immunostaining on retinal flatmounts; format: in vivo, rat; settings: GK rats, Fasudil vs vehicle, n=8/group, western blot (VEGF-164, neural retina)
Description: as §1

[10] = tested on: retinal vessels; assay: In vivo imaging of retinal vessels using confocal angiography; parameters: species or system rat; settings: GK rats, intravitreal fasudil, p<0.05
Description: For intravitreous injections, diabetic rats were anesthetized with an intraperitoneal injection of pentobarbital (40 mg/kg Nembutal, Abbot, Saint-Remy sur Avre, France) and pupils were dilated with a topically applied drop of 5% tropicamide (Ciba Vision, Toulouse, France), and locally anesthetized with a drop of 1% tetracaine (Ciba Vision). Three consecutive injections, of Fasudil at a concentration of 20 µM or vehicle were performed, at 48 hours interval under a surgical microscope, using a 30-gauge needle (Microfine: Becton Dickinson, Meylan, France as described previously). Animals were sacrificed 48 hours following the administration of 3 intra-vitreous injections of 20 μM of Fasudil, each injection was 2 days apart.

| Structure (SMILES) | affinity to ROCK relative to Fasudil [1] | phosphorylated MYTP1 in the RPE (ROCK-1 activity) [2] | total ROCK-1 in the RPE [3] | phosphorylated MLC in the RPE [4] | localization of ROCK1/P-MLC in RPE cells [5] | frequency of normal size RPE cells ([6]; GK retina, p<0.001) | frequency of small RPE cells (<200 μm2) ([6]; GK retina, p<0.001) | distribution of RPE cell area ([6]; WS (non-diabetic Wistar) retina, ANOVA p=0.17) | RPE barrier on histological sections ([7]; GK eyes, Fasudil treated) | vessel leakage (neural retina corrected total fluorescence) ([7]; GK eyes, Fasudil vs vehicle, n=5-6, p<0.01) | passage of 150 KDa FITC-dextran across the RPE barrier ([7]; GK rats, 2 hours after intravenous FITC-dextran, qualitative on cryosections) | capillary density (% of surface coverage by small vessels) [8] | VEGF levels in retina [9] | vasodilation of retinal vessels (vascular diameter before and after treatment) [10] |
| --- | --- | --- | --- | --- | --- | --- | --- | --- | --- | --- | --- | --- | --- | --- |
| O=c1[nH]ccc2c(S(=O)(=O)N3CCCNCC3)cccc12 [Hydroxyfasudil] | higher affinity | – | – | – | – | – | – | – | – | – | – | – | – | – |
| O=S(=O)(c1cccc2cnccc12)N1CCCNCC1 [Fasudil, hexahydro-1-(5-isoquinolylsulfonyl)-1H-1,4-di-azepime] | – | significant reduction | not significantly decreased | significant reduction | relocation of ROCK1/P-MLC from the membrane into the cytoplasm | increase frequency of normal size cells | significantly less small cells; also recorded: reduction in the frequency of small cells | no difference in distribution of cell area | intact RPE barrier | significant reduction in vessel leakage | did not cross the RPE barrier | significantly increased | significant decrease | significant effect of fasudil on retinal vessel diameter; also recorded: significant vasodilation |
